{"source": "patent US10772884B2", "about": "“Sulphate salts of N-(3-(4-(3-(diisobutylamino)propyl)piperazin-1-yl)propyl)-1H-benzo[d]imidazol-2-amine, preparation thereof and use of the same” (ALZPROTECT, priority 2012, dated 2020)", "format_in_all_cases": "physicochemical", "key": {"[1]": {"test": "DSC analysis of crystalline phase", "conditions": "DSC endotherm", "experimental": "DSC spectra. TA Instrument, DSC Q10.\nDSC spectra were recorded on a TA DSC Q10 instrument within a temperature range of −10° C. to 300° C. or 400° C. and with 10° C. increments."}, "[2]": {"test": "XRPD analysis of crystallinity", "conditions": "powder, ambient", "experimental": "X-ray powder diffraction (XRPD) analysis is performed on a Brüker—AXS D8 Advance diffractometer, using a copper anti-cathode, a mono-crystalline silicon sample holder and a position sensitive detector. Instrument operating conditions for X-rays pattern acquisition are described in Table 2.\nThe powder sample is dispersed on the silicon sample holder in a way to avoid preferred orientation (not randomly oriented crystals) and to ensure planarity of the specimen surface."}, "[3]": {"test": "salt formation results (physical form)", "experimental": "The hydrochloride, hydrobromide, acetate, tartrate, fumarate, malate, oxalate and sulphate salts of N-(3-(4-(3-(diisobutylamino)propyl)piperazin-1-yl)propyl)-1H-benzo[d]imidazol-2-amine were prepared according to procedures similar to those described in the previous examples or standard salt formation methods well known in the art."}, "[4]": {"test": "sample left standing open to the air (hygroscopicity, stability)", "conditions": "listed as chloride salt", "excerpt": "Both sulphate salts precipitated as solids. They were found stable when left open to the air. In contrast to the chloride salt, no hygroscopicity issue was observed."}, "[5]": {"test": "Dynamic vapour sorption (DVS) with water", "experimental": "Dynamic vapour sorption (DVS) analyses with water were performed on a DVS-Intrisic incubator from SMS Ltd, equipped with DVS-Intrisic Control Software 1.0.\nA sample of about 5 to 10 mg, placed in an aluminium pan holder, was submitted to a full-cycle analysis (sorption followed by desorption) under the conditions described in Table 3.\nThe sample was pre-dried under a stream of dry filtered air until a stable mass was obtained. Relative humidity was then increased by 5% increments. At each step, the sample was allowed to increase until equilibrium is reached (dm/dt criterion), then relative humidity was increased further. Relative humidity was ramped up to 95%. After equilibration at this stage, desorption is started in a similar stepwise manner, with a sample weight allowed to stabilize after each incremental humidity decrease step.\nDVS analysis was carried out according to the method described above."}}, "note": "Structures can show the parent of a compound that is named as a salt.", "data": [{"molecule": "CC(C)CN(CCCN1CCN(CCCNc2nc3ccccc3[nH]2)CC1)CC(C)C.O=C(O)C(=O)O.O=C(O)C(=O)O.O=C(O)C(=O)O.O=C(O)C(=O)O", "note": "[4 eq oxalate salt, N-(3-(4-(3-(diisobutylamino)propyl)piperazin-1-yl)propyl)-1H-benzo[d]imidazol-2-amine, 4 eq oxalate salt, reference compound]", "values": [{"measurement": "crystalline phase by DSC", "setting": "[1]", "value": "most well shaped and defined endotherm"}, {"measurement": "crystallinity by XRPD", "setting": "[2]", "value": "little or poor crystallinity"}]}, {"molecule": "CC(=O)O", "note": "[Acetate]", "values": [{"measurement": "Physical form", "setting": "[3]; Acid eq. added 1", "value": "No solid formed, oily residue"}, {"measurement": "Physical form", "setting": "[3]; Acid eq. added 2", "value": "No solid formed, oily residue"}]}, {"molecule": "Cl", "note": "[Chloride]", "values": [{"measurement": "hygroscopicity", "setting": "[4]", "value": "very hygroscopic"}]}, {"molecule": "CC(C)CN(CCCN1CCN(CCCNc2nc3ccccc3[nH]2)CC1)CC(C)C", "note": "[Example 1, N-(3-(4-(3-(diisobutylamino)propyl)piperazin-1-yl)propyl)-1H-benzo[d]imidazol-2-amine, 2.9 eq sulphate salt]", "values": [{"measurement": "crystallinity by XRPD", "setting": "[2]; sulphate salt", "value": "well good crystalline phase"}]}, {"molecule": "CC(C)CN(CCCN1CCN(CCCNc2nc3ccccc3[nH]2)CC1)CC(C)C.O=S(=O)(O)O", "note": "[Example 3, N-(3-(4-(3-(diisobutylamino)propyl)piperazin-1-yl)propyl)-1H-benzo[d]imidazol-2-amine, 1 eq sulphate salt]", "values": [{"measurement": "mass lost upon drying", "setting": "[5]; 25° C./0% RH", "value": 0.18, "unit": "%"}, {"measurement": "remaining amount of water upon desorption", "setting": "[5]; 25° C./0% RH", "value": 4.6, "unit": "%"}, {"measurement": "hygroscopicity (criterion: more than 2% by weight water uptake)", "setting": "[5]; 25° C./60% RH", "value": "not hygroscopic"}, {"measurement": "water uptake upon sorption", "setting": "[5]; 25° C./60% RH, compared to sample mass after initial drying at 0% RH", "value": 0.7, "unit": "%"}, {"measurement": "residual water remaining upon desorption", "setting": "[5]; 25° C./75% RH as printed, interval 95 to 90% RH", "value": 10, "unit": "%"}, {"measurement": "hysteresis (adsorbed water retained upon desorption)", "setting": "[5]; 25° C./75% RH, interval 75 to 10% RH", "value": "up to 6.7%"}, {"measurement": "water uptake upon sorption", "setting": "[5]; 25° C./80% RH, compared to sample mass after initial drying at 0% RH", "value": 1.5, "unit": "%"}, {"measurement": "water uptake upon sorption", "setting": "[5]; 25° C./90% RH, compared to sample mass after initial drying at 0% RH", "value": 9.7, "unit": "%"}, {"measurement": "water vapour uptake upon sorption", "setting": "[5]; 25° C./95% RH, compared to sample mass after initial drying at 0% RH", "value": 19.4, "unit": "%"}, {"measurement": "crystallinity by XRPD", "setting": "[2]", "value": "good crystallinity"}]}, {"molecule": "CC(C)CN(CCCN1CCN(CCCNc2nc3ccccc3[nH]2)CC1)CC(C)C", "note": "[Example 4, N-(3-(4-(3-(diisobutylamino)propyl)piperazin-1-yl)propyl)-1H-benzo[d]imidazol-2-amine, 2 eq sulphate salt]", "values": [{"measurement": "crystallinity by XRPD", "setting": "[2]", "value": "good crystallinity"}]}, {"molecule": "CC(C)CN(CCCN1CCN(CCCNc2nc3ccccc3[nH]2)CC1)CC(C)C.O.O.O=S(=O)(O)O", "note": "[di-hydrated form of example 3, di-hydrated form of N-(3-(4-(3-(diisobutylamino)propyl)piperazin-1-yl)propyl)-1H-benzo[d]imidazol-2-amine, 1 eq sulphate salt]", "values": [{"measurement": "stability and hygroscopicity in second DVS cycle", "setting": "[5]; 25° C., second sorption/desorption cycle", "value": "stable and non hygroscopic"}, {"measurement": "water uptake for the di-hydrated form, experimentally determined", "setting": "[5]; DVS 25° C.", "value": 6.7, "unit": "%"}, {"measurement": "theoretical water uptake for the di-hydrated form", "setting": "[5]; calculated", "value": 6.8, "unit": "%"}]}, {"molecule": "Fumarate", "values": [{"measurement": "Physical form", "setting": "[3]; Acid eq. added 1", "value": "Not crystalline^2"}, {"measurement": "crystalline phase by DSC", "setting": "[1]", "value": "not crystalline"}]}, {"molecule": "Malate", "values": [{"measurement": "Physical form", "setting": "[3]; Acid eq. added 1", "value": "Powder"}]}, {"molecule": "Oxalate", "values": [{"measurement": "Physical form", "setting": "[3]; Acid eq. added 2", "value": "Gum"}, {"measurement": "Physical form", "setting": "[3]; Acid eq. added 3", "value": "Gum"}, {"measurement": "Physical form", "setting": "[3]; Acid eq. added 4", "value": "Crystalline powder"}]}, {"molecule": "Sulphate", "values": [{"measurement": "Physical form", "setting": "[3]; Acid eq. added 1", "value": "Crystalline powder (colorless"}, {"measurement": "Physical form", "setting": "[3]; Acid eq. added 2", "value": "Crystalline powder (colorless"}]}, {"molecule": "Tartrate", "values": [{"measurement": "Physical form", "setting": "[3]; Acid eq. added 1", "value": "Not crystalline^2"}, {"measurement": "crystalline phase by DSC", "setting": "[1]", "value": "not crystalline"}]}]}
